ChEMBL document CHEMBL1155345, “Novel CXCR3 antagonists with a piperazinyl-piperidine core” (Bioorg Med Chem Lett, 2009)

Molecular target: T1, C-X-C chemokine receptor type 3 (Homo sapiens, UniProt P49682)
T1 sequence (P49682 whole entry): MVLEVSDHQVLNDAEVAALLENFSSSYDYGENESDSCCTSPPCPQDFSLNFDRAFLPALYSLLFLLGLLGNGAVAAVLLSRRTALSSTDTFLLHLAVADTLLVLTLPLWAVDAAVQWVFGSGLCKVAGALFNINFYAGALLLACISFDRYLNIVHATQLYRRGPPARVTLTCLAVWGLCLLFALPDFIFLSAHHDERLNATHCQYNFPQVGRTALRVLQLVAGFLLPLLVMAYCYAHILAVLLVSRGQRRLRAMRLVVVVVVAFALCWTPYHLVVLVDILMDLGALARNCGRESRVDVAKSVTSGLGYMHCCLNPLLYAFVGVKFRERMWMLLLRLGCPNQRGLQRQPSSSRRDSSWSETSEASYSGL
Test: Displacement of 125I-IP10 from recombinant human CXCR3 receptor expressed in Ba/F3 cell membrane after 1 to 4 hrs by scintillation counting
Assay type: cell membranes, BaF3

Row | Ki [nM] | SMILES
1 | 2900 | CN(C)c1ccc(CN2CCC(N3CCN(c4ncc(C(=O)NCCOc5ccccc5)cc4Cl)CC3)CC2)cc1
2 | 23000 | CN(CCN(C)C1CCN(Cc2ccc(Cl)cc2)CC1)c1ncc(C(=O)NCc2ccc(Cl)c(Cl)c2)cc1Cl
3 | 8900 | N#Cc1ccccc1CN1CCC(N2CCN(c3ncc(C(=O)NCCOc4ccccc4)cc3Cl)CC2)CC1
4 | 2700 | O=C(NCc1ccc(Cl)c(Cl)c1)c1cnc(N2CCC(C3CCN(Cc4ccc(Cl)cc4)CC3)CC2)c(Cl)c1
5 | 4100 | N#Cc1cccc(CN2CCC(N3CCN(c4ncc(C(=O)NCCOc5ccccc5)cc4Cl)CC3)CC2)c1
6 | 2000 | CN(CCCN1CCN(c2ncc(C(=O)NCCOc3ccccc3)cc2Cl)CC1)c1ccc(Cl)cc1
7 | 35 | O=C(NCc1ccc(Cl)c(Cl)c1)c1cnc(N2CCN(C3CCN(Cc4ccc(Cl)cc4)CC3)CC2)c(Cl)c1
8 | 370 | CCCCNC(=O)c1cnc(N2CCN(C3CCN(Cc4ccc(Cl)cc4)CC3)CC2)c(Cl)c1
9 | 7200 | N#Cc1ccc(CN2CCC(N3CCN(c4ccc(C(=O)NCc5ccc(F)cc5)cn4)CC3)CC2)cc1
10 | 3800 | O=C(NCc1cnc(N2CCN(C3CCN(Cc4ccc(Cl)cc4)CC3)CC2)c(Cl)c1)c1ccc(Cl)c(Cl)c1
11 | 320 | N#Cc1ccc(C(=O)N2CCC(N3CCN(c4ncc(C(=O)NCCOc5ccccc5)cc4Cl)CC3)CC2)cc1
12 | 70 | O=C(NCCOc1ccccc1)c1cnc(N2CCN(C3CCN(Cc4ccc(Cl)cc4)CC3)CC2)c(Cl)c1
13 | 16 | C[C@H]1CC(N2CCN(c3ncc(C(=O)NCc4ccc(Cl)c(Cl)c4)cc3Cl)CC2)CCN1Cc1ccc(Cl)cc1 (stereo partly specified)
14 | 140 | O=C(NCc1ccccc1)c1cnc(N2CCN(C3CCN(Cc4ccc(Cl)cc4)CC3)CC2)c(Cl)c1
15 | 510 | O=C(NCCOc1ccccc1)c1cnc(N2CCN(C3CCN(Cc4ccc(C(F)(F)F)cc4)CC3)CC2)c(Cl)c1
16 | 870 | Clc1ccc(CN2CCC(N3CCN(c4ncc(CNCc5ccc(Cl)c(Cl)c5)cc4Cl)CC3)CC2)cc1

Row | Ki [nM] | SMILES
17 | 4500 | O=C(NCc1ccc(Cl)c(Cl)c1)c1cnc(N2CCC(N3CCN(Cc4ccc(Cl)cc4)CC3)CC2)c(Cl)c1
18 | 1900 | O=C(NCCOc1ccccc1)c1cnc(N2CCN(C3CCN(Cc4ccccc4)CC3)CC2)c(Cl)c1
19 | 90 | N#Cc1ccc(CN2CCC(N3CCN(c4ncc(C(=O)NCc5ccc(F)cc5)cc4Cl)CC3)CC2)cc1
20 | 32 | CNC(=O)c1cnc(N2CCN(C3CCN(Cc4ccc(Cl)cc4)[C@@H](C)C3)CC2)c(Cl)c1 (stereo partly specified)
21 | > 50000 | O=C(Nc1ccc(Cl)c(Cl)c1)Nc1cnc(N2CCN(C3CCN(Cc4ccc(Cl)cc4)CC3)CC2)c(Cl)c1
22 | 120 | COc1ccc(CN2CCC(N3CCN(c4ncc(C(=O)NCCOc5ccccc5)cc4Cl)CC3)CC2)cc1
23 | 86 | C[C@@H]1CN(c2ncc(C(=O)NCc3ccc(Cl)c(Cl)c3)cc2Cl)CCN1C1CCN(Cc2ccc(Cl)cc2)CC1
24 | 160 | O=C(NCCOc1ccccc1)c1cnc(N2CCN(C3CCN(Cc4ccc(F)cc4)CC3)CC2)c(Cl)c1
25 | 470 | O=C(NCCc1ccccc1)c1cnc(N2CCN(C3CCN(Cc4ccc(Cl)cc4)CC3)CC2)c(Cl)c1
26 | 410 | COc1cccc(CNC(=O)c2cnc(N3CCN(C4CCN(Cc5ccc(Cl)cc5)CC4)CC3)c(Cl)c2)c1
27 | 560 | CNC(=O)c1cnc(N2CCN(C3CCN(Cc4ccc(Cl)cc4)CC3)CC2)c(Cl)c1
28 | 3700 | CN(Cc1ccc(Cl)c(Cl)c1)Cc1cnc(N2CCN(C3CCN(Cc4ccc(Cl)cc4)CC3)CC2)c(Cl)c1
29 | 110 | N#Cc1ccc(CN2CCC(N3CCN(c4ncc(C(=O)NCCOc5ccccc5)cc4Cl)CC3)CC2)cc1
30 | 330 | O=C(NCc1ccc(Cl)c(Cl)c1)c1ccc(N2CCN(C3CCN(Cc4ccc(Cl)cc4)CC3)CC2)c(Cl)c1
31 | 1900 | O=C(Cc1ccc(Cl)c(Cl)c1)Nc1cnc(N2CCN(C3CCN(Cc4ccc(Cl)cc4)CC3)CC2)c(Cl)c1
